The values that follow are results of earlier work, collected in patent publication US20240226070A1, “URAT1 INHIBITOR, PHARMACEUTICAL COMPOSITIONS AND USES THEREOF” (UR-1 Therapeutics, Inc., priority 2021, published 2024).

The structures appear in SMILES notation.

In one series the test system is 5/6 Nx rats. Particulars: for effect on aggravation of CKD by hyperuricemia: 5/6 Nx rats dosed with potassium oxonate (750 mg/kg BW).
The target of series [1] is T1, ATP-binding cassette subfamily G member 2 (ABCG2) (Homo sapiens, UniProt Q9UNQ0).
T1 sequence (Q9UNQ0 1-655): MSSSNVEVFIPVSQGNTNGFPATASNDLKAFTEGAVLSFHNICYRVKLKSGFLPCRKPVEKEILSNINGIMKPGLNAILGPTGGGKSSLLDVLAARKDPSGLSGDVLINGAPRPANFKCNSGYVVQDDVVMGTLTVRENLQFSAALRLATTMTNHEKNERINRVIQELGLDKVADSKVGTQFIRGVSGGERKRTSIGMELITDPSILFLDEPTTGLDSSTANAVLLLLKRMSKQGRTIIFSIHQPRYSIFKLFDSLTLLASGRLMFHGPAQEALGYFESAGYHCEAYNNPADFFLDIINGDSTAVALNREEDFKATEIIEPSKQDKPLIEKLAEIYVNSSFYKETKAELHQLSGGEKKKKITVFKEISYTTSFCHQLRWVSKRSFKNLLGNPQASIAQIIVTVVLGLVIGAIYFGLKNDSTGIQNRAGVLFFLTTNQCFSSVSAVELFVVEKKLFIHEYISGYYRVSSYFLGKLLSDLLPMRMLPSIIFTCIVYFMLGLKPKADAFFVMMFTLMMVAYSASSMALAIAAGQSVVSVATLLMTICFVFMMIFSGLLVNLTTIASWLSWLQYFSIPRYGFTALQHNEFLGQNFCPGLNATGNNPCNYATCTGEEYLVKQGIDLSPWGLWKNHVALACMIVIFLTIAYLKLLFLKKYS
Particulars: in vitro.

The target of another series is T2, OAT1 (Homo sapiens, UniProt Q4U2R8).
T2 sequence (Q4U2R8 1-563): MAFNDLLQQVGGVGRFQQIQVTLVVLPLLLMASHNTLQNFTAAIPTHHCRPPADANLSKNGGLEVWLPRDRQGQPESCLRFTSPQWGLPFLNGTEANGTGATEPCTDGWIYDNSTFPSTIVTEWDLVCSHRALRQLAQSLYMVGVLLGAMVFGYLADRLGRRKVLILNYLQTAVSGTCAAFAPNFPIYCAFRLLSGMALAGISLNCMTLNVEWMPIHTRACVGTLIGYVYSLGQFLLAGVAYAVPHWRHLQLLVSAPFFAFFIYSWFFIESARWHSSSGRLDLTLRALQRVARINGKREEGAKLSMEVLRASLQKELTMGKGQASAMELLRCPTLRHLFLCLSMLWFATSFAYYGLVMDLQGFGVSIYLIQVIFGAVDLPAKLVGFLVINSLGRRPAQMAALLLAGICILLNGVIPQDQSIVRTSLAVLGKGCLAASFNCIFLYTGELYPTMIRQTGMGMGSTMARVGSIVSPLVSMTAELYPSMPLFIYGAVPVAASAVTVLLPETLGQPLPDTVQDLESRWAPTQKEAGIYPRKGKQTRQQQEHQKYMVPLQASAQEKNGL
Particulars: in vitro.

For a further series, the target named is T3, OAT3 (Homo sapiens, UniProt Q8TCC7).
T3 sequence (Q8TCC7 1-542): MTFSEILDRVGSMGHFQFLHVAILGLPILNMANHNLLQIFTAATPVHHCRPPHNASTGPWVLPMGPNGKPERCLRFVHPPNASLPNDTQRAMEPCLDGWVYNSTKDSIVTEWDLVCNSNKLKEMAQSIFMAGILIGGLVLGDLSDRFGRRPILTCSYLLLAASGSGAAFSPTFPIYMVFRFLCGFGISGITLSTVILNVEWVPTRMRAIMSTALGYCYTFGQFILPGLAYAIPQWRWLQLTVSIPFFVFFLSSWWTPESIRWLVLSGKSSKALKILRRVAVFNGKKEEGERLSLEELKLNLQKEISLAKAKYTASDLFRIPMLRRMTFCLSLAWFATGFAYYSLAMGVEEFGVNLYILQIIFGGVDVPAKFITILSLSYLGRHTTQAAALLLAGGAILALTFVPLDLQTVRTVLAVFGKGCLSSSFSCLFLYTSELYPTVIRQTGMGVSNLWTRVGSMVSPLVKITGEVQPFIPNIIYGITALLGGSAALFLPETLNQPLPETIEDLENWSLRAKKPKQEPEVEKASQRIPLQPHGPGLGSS
Particulars: in vitro.

For series [2] the following is noted: oral administration, 1.3 mg/kg.

`Cc1nc(-c2ccc(OCC(C)C)c(C#N)c2)sc1C(=O)O` [Febuxostat, febuxostat]: the “effect on aggravation of CKD by hyperuricemia” value with 5/6 Nx rats is on record as “prevented the aggravation of the disease”. The nephroprotection result in the series on 5/6 Nx rats (5/6 rats that not received oxonic acid) was “significant nephroprotection”.

A word on the IC50: it is the point on the concentration scale where inhibition reaches its midpoint. One may read the Cmax as the maximum level reached in the sampled fluid or tissue. As to `O=C(c1cc(Cl)c(O)c(Cl)c1)N1CS(=O)(=O)c2ccccc21` [Dotinurad, 3-(3,5-dichloro-4-hydroxybenzoyl)-1,1-dioxo-2,3-dihydro-1,3-benzothiazole], the IC50 in series [1] is 4.16 µM. On OAT1, the IC50 is 4.08 µM. For the same molecule, the IC50 on OAT3 was 1320 nM. Besides, in series [2], the Cmax was 415 ng/mL and the oral bioavailability is recorded as 2.5%. Further, in series [2] (Sprague-Dawley rats), the plasma clearance was 402.1 mL/min/kg and the “terminal elimination half-life (T1/2)” value was 1.88 h.

In the case of `Oc1ncnc2[nH]ncc12` [Allopurinol, allopurinol], the “effect on aggravation of CKD by hyperuricemia” value in the series with 5/6 Nx rats was “prevented the aggravation of the disease”.
